Publication PMC4730278, “In Vivo Anti-Tumor Activity and Toxicological Evaluations of Perillaldehyde 8,9-Epoxide, a Derivative of Perillyl Alcohol” (International Journal of Molecular Sciences, 2016)

Experiments:
[1] = Hematological parameters in blood, mice with S-180 tumor; assay type: in vivo, Swiss mice; conditions: 7 days; for Differential Count of Leukocytes, Eosinophil / Differential Count of Leukocytes, Lymphocyte / Differential Count of Leukocytes, Monocyte / Differential Count of Leukocytes, Neutrophil / Total Leukocytes: mice with S-180 tumor
Experimental: (§1) Body weights (n = 10 mice/group) were determined at the first and last days of treatment. Organ weight alterations (n = 10 mice/group), and hematological and biochemical analysis (n = 5 mice/group) were performed on the last day of experimentation. All systemic toxicological analyses were also performed with 4 healthy animal groups, without the inoculation of S-180, (n = 5 mice/group) treated with 5% DMSO (i.p.), 5-FU 25 mg/Kg/day (i.p.), perillaldehyde 8,9-epoxide 100 mg/kg/day (i.p.) and perillaldehyde 8,9-epoxide 200 mg/kg/day for consecutive 7 days.
(§2) Twenty four hours after the seventh treatment day, blood samples of the animals were collected (retro-orbital plexus) with anesthetized mice (1.5%, isoflurane). Immediately after blood collection the animals were euthanized, and their organs (liver, spleen and kidneys) were removed and weighed. The wet mass of each organ was expressed as grams per 100 grams of body mass and compared to the negative control group.
(§3) For hematological analyses, an aliquot of blood from each animal was placed in ethylene diamine tetracetic acid (EDTA). Hematological parameters, including the total as well as differential counts of leukocytes, including eosinophils, lymphocytes, neutrophils and monocytes determined by standard manual procedures using optical light microscopy.

[2] = Biochemical parameters in blood, healthy mice; assay type: in vivo, Swiss mice; conditions: 7 days
Experimental: as §1, §2
(§4) For evaluation of the effect of perillaldehyde 8,9-epoxide on the biochemical parameters aspartate aminotransferase (AST) and alanine aminotransferase (ALT) enzymatic to investigate liver function alterations, creatinine and urea were measured as renal function parameters. For this test, blood samples of the animals were collected without anticoagulant, centrifuged for 10 min at 3500 rpm and 25 °C to obtain […].
(§5) The Clinical Chemistry® kits (Abbott Architect; C8000; Abbott Laboratories, Wiesbaden, Germany) were used for biochemical evaluation of serum samples.

[3] = Body and organ weights, mice transplanted with S-180 tumor cells; assay type: in vivo, Swiss mice; conditions: 7 days
Experimental: as §1, §2

[4] = Hematological parameters in blood, healthy mice; assay type: in vivo, Swiss mice; conditions: 7 days
Experimental: as §1, §2, §3

[5] = test system: sarcoma 180 tumor cells (S-180); experiment: In vivo antitumor activity assay, sarcoma 180 tumor growth in mice; parameters: species or system Swiss mice; conditions: 7 consecutive days
Experimental: Sarcoma 180 (S-180) tumor cells, were obtained through at the Federal University of Ceará, Brazil and maintained in the abdominal cavities of Swiss mice in their ascitic form by ten days.
The effect on tumor growth in vivo was assessed using S-180 ascites tumor cells, according standard protocol. Ten-day-old S-180 ascites tumor cells (2 × 10^6 cells per 0.5 mL) were inoculated subcutaneously into the right axillary region of animals. After 24 h, the animals were separated into 5 groups (n = 10 mice/group) and subjected to intraperitoneal (i.p.) treatment for 7 consecutive days (once a day). Group 1 consisted of animals treated by intraperitoneal (i.p.) administration of negative control—5% Dimethyl sulfoxide (DMSO); Group 2 consisted of animals treated by i.p. administration of positive control—5-fluorouracil 25 mg/kg/day (5-FU; purity > 99%; Sigma Chemical Co., St. Louis, MO, USA); Group 3 consisted of animals treated by i.p. administration of perillaldehyde 8,9-epoxide at 100 mg/kg/day; Group 4 consisted of animals treated by i.p. administration of perillaldehyde 8,9-epoxide at 200 mg/kg/day; Group 5 consisted of animals treated by i.p. administration of perillyl alcohol at 100 mg/kg/day; Group 6 consisted of animals treated by i.p. administration of perillyl alcohol at 200 mg/kg/day. At 24 h from the last day of treatment, under 1.5% isoflurane inhalation anesthesia, the mice were euthanized, and the tumors were weighed. The inhibition ratio of tumor growth (%) was calculated by the following equation: (%) = [(NC − TG)/NC] × 100, where NC is the average tumor weight of the negative control group and TG is the average tumor weight of the treated group.

[6] = Biochemical parameters in blood, mice with S-180 tumor cells; assay type: in vivo, Swiss mice; conditions: 7 days; for ALT / AST / Creatinine / Urea: mice with S-180 tumor cells
Experimental: as §1, §2, §4, §5

[7] = Histopathological and macroscopic analyses of livers, kidneys and spleens; assay type: in vivo, Swiss mice
Experimental: After being weighed and fixed in 10% formaldehyde; tumors, livers, spleens, and kidneys were submitted for assessment macroscopic (size, coloration and hemorrhage), were cut into small pieces and, after that dehydrated in alcohol, diaphanized in xylene and paraffin-embedded. Subsequently, 5-µm-thick histological sections were obtained and stained with hematoxylin and eosin. Histological analyses were performed by light microscopy in order to assess possible damage caused by treatment.

[8] = Body and organ weights, healthy mice; assay type: in vivo, Swiss mice; conditions: 7 days
Experimental: as §1, §2

[9] = test system: three human tumor cell lines (ovarian adenocarcinoma, colon carcinoma, glioblastoma); parameters: method as in PMID 26197313; conditions: in vitro; cited from earlier work
[10] = test system: 4 cancer cell lines (colon carcinoma, ovarian adenocarcinoma, glioblastoma, and leukemia); parameters: method as in PMID 26197313; conditions: all of the 4 cell lines studied; cited from earlier work
[11] = mice with tumor S-180, 25 mg/kg/day i.p.
[12] = mice with tumor S-180, 100 mg/kg/day i.p.
[13] = mice with tumor S-180, 200 mg/kg/day i.p.

## O=c1[nH]cc(F)c(=O)[nH]1 [5-FU, 5-fluorouracil, reference compound]
[1]; 25 mg/kg/day i.p.
  Differential Count of Leukocytes, Eosinophil: 0%
  Differential Count of Leukocytes, Lymphocyte: 89.0 ± 0.70 %
  Differential Count of Leukocytes, Monocyte: 0.8 ± 0.37%
  Differential Count of Leukocytes, Neutrophil: 10.2 ± 0.54 %
  Total Leukocytes: 2.50 ± 0.32 ^# 10^3 Cells/µL
[2]; 25 mg/kg/day i.p.
  ALT: 47.25 ± 2.8 U/L
  AST: 102.0 ± 15.06 U/L
  Creatinine: 0.37 ± 0.02 mg/dL
  Urea: 49.00 ± 5.86 mg/dL
[3]; [11]
  Kidney: 1.15 ± 0.04 g/100 g Body Mass
  Liver: 4.99 ± 0.16 g/100 g Body Mass
  Spleen: 0.33 ± 0.02 g/100 g Body Mass
  Variation Body in Mass: -4.46 ± 0.83 g
[4]; 25 mg/kg/day i.p.
  Differential Count of Leukocytes, Eosinophil: 0%
  Differential Count of Leukocytes, Lymphocyte: 95.8 ± 0.70 %
  Differential Count of Leukocytes, Monocyte: 1.2 ± 0.70%
  Differential Count of Leukocytes, Neutrophil: 3.0 ± 0.70 %
  Total Leukocytes: 2.37 ± 0.77 * 10^3 Cells/µL
[5]; 25 mg/kg/day i.p.
  tumor growth inhibition rate: 68.1%
[5]; 25 mg/kg/day i.p., 24 h after last treatment, NC 1.18 ± 0.07 g
  mean tumor mass: 0.36 ± 0.02 g
[6]; 25 mg/kg/day i.p.
  ALT: 42.8 ± 0.6 U/L
  AST: 164.4 ± 10.0 U/L
  Creatinine: 0.28 ± 0.09 mg/dL
  Urea: 50.71 ± 2.18 mg/dL
[7]; 25 mg/kg/day i.p., 7 days
  macroscopic observation of the spleens: Visible atrophy
[8]; 25 mg/kg/day i.p.
  Kidney: 1.13 ± 0.03 g/100 g Body Mass
  Liver: 4.65 ± 0.21 g/100 g Body Mass
  Spleen: 0.19 ± 0.02 g/100 g Body Mass
  Variation Body in Mass: -3.50 ± 0.66 g

## CC1([C@@H]2CC=C(C=O)CC2)CO1 (stereo partly shown) [perillaldehyde 8,9-epoxide]
[1]; healthy mice and mice with S-180, at the doses tested (100 and 200 mg/kg/day i.p.)
  effect on total leukocyte count (in words): caused leukopenia
[1]; 100 mg/kg/day i.p.
  Differential Count of Leukocytes, Eosinophil: 0%
  Differential Count of Leukocytes, Lymphocyte: 73.2 ± 2.17 %
  Differential Count of Leukocytes, Monocyte: 0.6 ± 0.40%
  Differential Count of Leukocytes, Neutrophil: 26.2 ± 5.92 %
  Total Leukocytes: 5.30 ± 0.37 ^# 10^3 Cells/µL
[1]; 200 mg/kg/day i.p.
  Differential Count of Leukocytes, Eosinophil: 0%
  Differential Count of Leukocytes, Lymphocyte: 80.6 ± 2.54 %
  Differential Count of Leukocytes, Monocyte: 0.8 ± 0.34%
  Differential Count of Leukocytes, Neutrophil: 18.6 ± 6.18 %
  Total Leukocytes: 6.50 ± 0.65 ^# 10^3 Cells/µL
[2]; 100 mg/kg/day i.p.
  ALT: 55.25 ± 6.26 U/L
  AST: 100.5 ± 5.97 U/L
  Creatinine: 0.34 ± 0.01 mg/dL
  Urea: 54.25 ± 3.82 mg/dL
[2]; 200 mg/kg/day i.p.
  ALT: 47.75 ± 4.64 U/L
  AST: 78.75 ± 3.17 U/L
  Creatinine: 0.34 ± 0.01 mg/dL
  Urea: 41.00 ± 4.42 mg/dL
[3]; healthy and S-180 mice, 100 and 200 mg/kg/day i.p.
  changes in body or organ masses (in words): did not cause changes in body or organ masses
[3]; [12]
  Kidney: 1.27 ± 0.03 g/100 g Body Mass
  Liver: 4.84 ± 0.07 g/100 g Body Mass
  Spleen: 0.52 ± 0.02 g/100 g Body Mass
  Variation Body in Mass: 1.11 ± 0.19 g
[3]; [13]
  Kidney: 1.28 ± 0.03 g/100 g Body Mass
  Liver: 4.57 ± 0.09 g/100 g Body Mass
  Spleen: 0.49 ± 0.04 g/100 g Body Mass
  Variation Body in Mass: -1.58 ± 0.33 g
[4]; 100 mg/kg/day i.p.
  Differential Count of Leukocytes, Eosinophil: 0%
  Differential Count of Leukocytes, Lymphocyte: 86.0 ± 1.68 %
  Differential Count of Leukocytes, Monocyte: 1.5 ± 0.86%
  Differential Count of Leukocytes, Neutrophil: 12.5 ± 1.08 %
  Total Leukocytes: 3.12 ± 0.38 * 10^3 Cells/µL
[4]; 200 mg/kg/day i.p.
  Differential Count of Leukocytes, Eosinophil: 0%
  Differential Count of Leukocytes, Lymphocyte: 89.5 ± 0.65 %
  Differential Count of Leukocytes, Monocyte: 1.3 ± 0.25%
  Differential Count of Leukocytes, Neutrophil: 9.2 ± 0.85 %
  Total Leukocytes: 2.62 ± 0.47 * 10^3 Cells/µL
[5]; 100 mg/kg/day i.p.
  tumor growth inhibition rate: 38.4%
[5]; 200 mg/kg/day i.p.
  tumor growth inhibition rate: 58.7%
[6]; healthy and S-180 mice, at the doses tested (100 and 200 mg/kg/day i.p.)
  changes in hepatic and renal parameters (AST, ALT, urea, creatinine; in words): does not cause changes in hepatic and renal parameters
[6]; 100 mg/kg/day i.p.
  ALT: 35.0 ± 2.2 U/L
  AST: 178.0 ± 5.0 U/L
  Creatinine: 0.34 ± 0.01 mg/dL
  Urea: 43.0 ± 1.08 mg/dL
[6]; 200 mg/kg/day i.p.
  ALT: 36.0 ± 3.5 U/L
  AST: 208.3 ± 20.6 U/L
  Creatinine: 0.33 ± 0.02 mg/dL
  Urea: 47.80 ± 2.01 mg/dL
[9]
  inhibition percentage (GI%) compared with perillyl alcohol: higher inhibition percentage in all cell lines tested
[7]; light microscopy, hematoxylin-eosin, after 7 days i.p. treatment
  Histopathological analyses of the liver, spleen, and kidneys (morphology): free from any morphological changes
[10]
  IC50 (median inhibitory concentration able to induce 50% of maximal effect): less than 4.0 µg/mL
[8]; 100 mg/kg/day i.p.
  Kidney: 1.15 ± 0.06 g/100 g Body Mass
  Liver: 4.66 ± 0.09 g/100 g Body Mass
  Spleen: 0.25 ± 0.01 g/100 g Body Mass
  Variation Body in Mass: 0.90 ± 0.38 g
[8]; 200 mg/kg/day i.p.
  Kidney: 1.17 ± 0.19 g/100 g Body Mass
  Liver: 5.07 ± 0.13 g/100 g Body Mass
  Spleen: 0.37 ± 0.06 g/100 g Body Mass
  Variation Body in Mass: -0.71 ± 0.53 g

## C=C(C)[C@@H]1CC=C(CO)CC1 [perillyl alcohol, (S)-(−)-perillyl alcohol]
[5]; 100 mg/kg/day i.p.
  tumor growth inhibition rate: 35.3%
[5]; 200 mg/kg/day i.p.
  tumor growth inhibition rate: 45.4%
